Laboratory results as given in patent publication EP1685248B1, “OXIDOREDUCTASE FROM METSCHNIKOWIA ZOBELLII” (IEP GmbH, priority 2003, dated 2005).

test system: rekombinante Oxidoreduktase aus Metschnikowia zobellii; assay: not given; format: biochemical; conditions: not given

SMILES	des eingesetzten Substrats reduziert [%]
CCOC(=O)CCCCC(=O)CCCl [8-Chlor-6-oxo-octansäure-ethylester]	55
CCOC(=O)C(=O)CCc1ccccc1 [Ethyl-2-oxo-4-phenyl-buttersäure]	92
CCOC(=O)C(=O)c1ccccc1 [Ethylphenylglyoxylat]	50

same assay, conditions: Nach 48 h; 25 °C; two-phase system

SMILES	des eingesetzten Substrats reduziert [%]
O=C(CCl)c1ccccc1 [2-Chlor-1-phenyl-ethan-1-on]	75

test system: Oxidoreduktase aus Metschnikowia zobellii; assay: Substrate spectrum (relative enzyme activity, standard assay of Example 5.1); format: biochemical; conditions: not given

SMILES	Relative Aktivität % [%]
CCC(C)=O [Butan-2-on]	0
O=C(CCl)CCCl [1,4-Dichlor-butan-2-on]	27
O=C1CCCCC1 [Cyclohexanon]	3
CC(=O)Cc1ccccc1 [1-Phenyl-2-propanon]	15
CCOC(=O)CC(=O)CCl [4-Chloracetessigsäureethylester]	100
O=C(CCl)c1cccc(Cl)c1 [2-chlor-1-(3-chlor-pheny)-ethan-1-on]	5

same assay, conditions: activity with 2-Oxo-4-phenyl-buttersäureethylester set to 100%; NADPH; 25 °C

SMILES	Relative Aktivität % [%]
COC(=O)CCCCC(=O)CC(=O)OC [3-Oxo-1,8-octandisäure-dimethylester]	35
CCOC(=O)C(=O)c1ccccc1Cl [(2-chlorphenyl)-oxo-essigsäure ethylester]	50
CCCC(=O)C(=O)OCC [Ethyl-2-oxovaleriansäure]	100
CCOC(=O)CCCCC(=O)CCCl [8-Chlor-6-oxo-octansäure-ethylester]	50
CC(=O)c1ccccc1 [Acetophenon]	0
CCCCCCCC(=O)c1ccccc1 [Caprylophenon]	0
CCOC(=O)C(=O)CCc1ccccc1 [Ethyl-2-oxo-4-phenyl-buttersäure]	100
CC1CCCC(=O)C1 (stereo not shown) [3-Methylcyclohexanon]	8
CC1CCCCC1=O (stereo not shown) [2-Methylcyclohexanon]	8
CCOC(=O)C1CCCC1=O (stereo not shown) [2-Oxo-cyclopentan carbonsäure-ethylester]	8
CCOC(=O)C(=O)c1ccccc1 [Ethylphenylglyoxylat]	50
CCOC(=O)C1CCCCC1=O (stereo not shown) [2-Oxo-cyclohexan-carbonsäure-ethylester]	20
